Measurements taken from US11117947B2, “Double-acylated GLP-1 derivatives” (Novo Nordisk A/S, priority 2011, dated 2021).
Numbered stars: 1 amine (or outer) side, 2 acyl side, 3 side chain; on linkers, the order of the positions; unused ones are H or OH. Square brackets hold non-standard residues; d marks the D form. Side chains are listed from the residue outwards. Peptide text beside a SMILES is read from it. * marks the point of attachment. Decanoyl(10-(4-HOOC-PhO)) = O=C(O)c1ccc(OCCCCCCCCCC(=O)*)cc1; γGlu = O=C(O)[C@H](CCC(=O)[*:2])N[*:1]; C14 diacid = O=C(O)CCCCCCCCCCCCC(=O)*; AEEA = NCCOCCOCC(=O)O; Aib = CC(C)(N)C(=O)O

What was measured:
[1] = target: T1, human GLP-1 receptor (Homo sapiens, UniProt P43220); experiment: GLP-1 receptor binding: displacement of 125I-GLP-1 (SPA) at low and high albumin; settings: for Ratio [(IC50/nM) high HSA]/[(IC50/nM) low HSA]: 2.0% HSA vs 0.001% HSA
T1 construct: expressed in transfected cells; membranes
T1 sequence (P43220 24-463): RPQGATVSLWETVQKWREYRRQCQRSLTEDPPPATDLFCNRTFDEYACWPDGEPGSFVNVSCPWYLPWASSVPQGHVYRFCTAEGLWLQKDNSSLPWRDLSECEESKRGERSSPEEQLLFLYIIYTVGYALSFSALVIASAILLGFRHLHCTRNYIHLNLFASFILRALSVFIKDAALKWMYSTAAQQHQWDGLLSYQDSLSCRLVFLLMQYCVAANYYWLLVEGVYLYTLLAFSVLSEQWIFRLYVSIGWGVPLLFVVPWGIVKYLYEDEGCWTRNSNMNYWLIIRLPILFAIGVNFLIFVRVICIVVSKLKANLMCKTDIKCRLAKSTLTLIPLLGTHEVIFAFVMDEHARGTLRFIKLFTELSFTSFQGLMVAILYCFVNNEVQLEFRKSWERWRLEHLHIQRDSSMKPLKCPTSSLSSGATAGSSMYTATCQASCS
Procedure: The purpose of this experiment is to investigate the binding to the GLP-1 receptor of the GLP-1 derivatives, and how the binding is potentially influenced by the presence of albumin. This is done in an in vitro experiment as described below.
In order to test the binding of the derivatives to albumin, the assay was performed with a low concentration of albumin (0.001%—corresponding to the residual amount thereof in the tracer), as well as with a high concentration of albumin (2.0% added). A shift in the binding affinity, IC50, is an indication that the peptide in question binds to albumin, and thereby a prediction of a potential protracted pharmacokinetic profile of the peptide in question in animal models.
Species (in vitro): Hamster
Biological End Point: Receptor Binding
A stable transfected cell line and a high expressing clone were selected for screening. The cells were grown at 5% CO2 in DMEM, 10% FCS, 1% Pen/Strep (Penicillin/Streptomycin) and 1.0 mg/ml of the selection marker G418.
The cells (approx. 80% confluence) were washed twice in PBS and harvested with Versene (aqueous solution of the tetrasodium salt of ethylenediaminetetraacetic acid), following which they were separated by centrifugation at 1000 rpm for 5 min. The cells/cell pellet must be kept on ice to the extent possible in the subsequent steps. The cell pellet was homogenised with Ultrathurrax for 20-30 seconds in a suitable amount of Buffer 1 (depending on the amount of cells, but e.g. 10 ml). The homogenate was centrifuged at 20000 rpm for 15 minutes. The pellet was resuspended (homogenised) in 10 ml Buffer 2 and re-centrifuged. This step was repeated once more. The resulting pellet was resuspended in Buffer 2, and the protein concentration was determined. The membranes were stored at minus 80° C.
Buffer 1: 20 mM Na-HEPES+10 mM EDTA, pH 7.4
Buffer 2: 20 mM Na-HEPES+0.1 mM EDTA, pH 7.4
Test compounds, membranes, SPA-particles and [^125I]-GLP-1(7-36)NH2 were diluted in assay buffer. 50 ul (micro liter) HSA (“high albumin” experiment containing 2% HSA), or buffer (“low albumin” experiment containing 0.001% HSA), was added to Optiplate, and 25 ul of test compounds were added. 5-10 ug membrane protein/sample was added (50 ul) corresponding to 0.1-0.2 mg protein/ml (to be preferably optimised for each membrane preparation). SPA-particles (Wheatgerm agglutinin SPA beads, Perkin Elmer, #RPNQ0001) were added in an amount of 0.5 mg/well (50 ul). The incubation was started with [^125I]-GLP-1]-(7-36)NH2 (final concentration 0.06 nM corresponding to 49.880 DPM, 25 ul). The plates were sealed with PlateSealer and incubated for 120 minutes at 30° C. while shaking. The plates were centrifuged (1500 rpm, 10 min) and counted in Topcounter.

[2] = Estimate of oral bioavailability: gut injection in rat (caprate), exposure in plasma; format: in vivo; settings: injection in jejunum, 1000 uM in 55 mg/ml sodium caprate, plasma concentration (pM) at 30 min divided by dosing solution concentration (μM), mean n=4
Procedure: The GLP-1 derivatives were tested in a concentration of 1000 uM in a solution of 55 mg/ml sodium caprate.
Male Sprague Dawley rats with a body weight upon arrival of approximately 240 g were obtained from Taconic (Denmark) and assigned to the different treatments by simple randomisation, 4 rats per group.
The GLP-1 derivatives were administered in the jejunum either in the proximal part (10 cm distal for the duodenum) or in the mid-intestine (50 cm proximal for the cecum). A PE50-catheter, 10 cm long was inserted into the jejunum, forwarded at least 1.5 cm into the jejunum, and secured before dosing by ligature around the gut and the catheter with 3/0 suture distal to tip to prevent leak or catheter displacement. Catheter was placed without syringe and needle and 2 ml saline was administered into abdomen before closing the incision with wound clips.
100 μl of the respective GLP-1 derivative was injected into the jejunal lumen through the catheter with a 1 ml syringe. Subsequently, 200 μl of air was pushed into the jejunal lumen with another syringe to “flush” the catheter. This syringe was leaved connected to the catheter to prevent flow back into the catheter.
Blood samples (200 ul) were collected at desired intervals (usually at times 0, 10, 30, 60, 120 and 240 min) into EDTA tubes from the tail vein and centrifuged 5 minutes, 10000G, at 4° C. within 20 minutes. […] 12, p. 240-247. The donor beads were coated with streptavidin, while acceptor beads were conjugated with a monoclonal antibody recognising a mid-/C-terminal epitope of the peptide. Another monoclonal antibody, specific for the N-terminus, was biotinylated. The three reactants were combined with the analyte and formed a two-sited immuno-complex. Illumination of the complex released singlet oxygen atoms from the donor beads, which were channeled into the acceptor beads and triggered chemiluminescence which was measured in an Envision plate reader. The amount of light was proportional to the concentration of the compound.
After the blood sampling the rats were sacrificed under anaesthesia and the abdomen was opened to verify correct catheter placement.
The mean (n=4) plasma concentrations (pmol/l) were determined as a function of time.

SMILES	IC50 ([1]; high albumin, 2.0% HSA, read-out: IC50/nM (high HSA))	Dose-corrected exposure at 30 min [2]	Ratio [(IC50/nM) high HSA]/[(IC50/nM) low HSA] [1]
CC[C@H](C)[C@H](NC(=O)[C@H](Cc1ccccc1)NC(=O)[C@H](CCCCNC(=O)COCCOCCNC(=O)COCCOCCNC(=O)CC[C@H](NC(=O)CCCCCCCCCOc1ccc(C(=O)O)cc1)C(=O)O)NC(=O)[C@H](CCCNC(=N)N)NC(=O)[C@H](C)NC(=O)[C@H](C)NC(=O)[C@H](CCC(N)=O)NC(=O)[C@H](CCC(=O)O)NC(=O)[C@H](CCC(=O)O)NC(=O)[C@H](CC(C)C)NC(=O)[C@H](Cc1ccc(O)cc1)NC(=O)[C@H](CO)NC(=O)[C@H](CO)NC(=O)[C@@H](NC(=O)[C@H](CC(=O)O)NC(=O)[C@H](CO)NC(=O)[C@@H](NC(=O)[C@H](Cc1ccccc1)NC(=O)[C@@H](NC(=O)CNC(=O)[C@H](CCC(=O)O)NC(=O)[C@H](C)NC(=O)[C@@H](N)Cc1c[nH]cn1)[C@@H](C)O)[C@@H](C)O)C(C)C)C(=O)N[C@@H](C)C(=O)N[C@@H](Cc1c[nH]c2ccccc12)C(=O)N[C@@H](CC(C)C)C(=O)N[C@H](C(=O)N[C@@H](CCCNC(=N)N)C(=O)NCC(=O)N[C@@H](CCCCNC(=O)COCCOCCNC(=O)COCCOCCNC(=O)CC[C@H](NC(=O)CCCCCCCCCOc1ccc(C(=O)O)cc1)C(=O)O)C(=O)O)C(C)C [Example 3, N^ε27-[2-[2-[2-[[2-[2-[2-[[(4S)-4-carboxy-4-[10-(4-carboxyphenoxy)decanoylamino]butanoyl]amino]ethoxy]ethoxy]acetyl]amino]ethoxy]ethoxy]acetyl], N^ε36-[2-[2-[2-[[2-[2-[2-[[(4S)-4-carboxy-4-[10-(4-carboxyphenoxy)decanoylamino]butanoyl]amino]ethoxy]ethoxy]acetyl]amino]ethoxy]ethoxy]acetyl]-[Glu^22,Arg^26,Lys^27,Arg^34,Lys^36],des-Gly37-GLP-1-(7-36)-peptide] (H-HAEGTFTSDVSSYLEEQAARK([AEEA-AEEA-γGlu-Decanoyl(10-(4-HOOC-PhO))])FIAWLVRGK([AEEA-AEEA-γGlu-Decanoyl(10-(4-HOOC-PhO))])-OH; N-terminus and C-terminus assumed)	29 nM	67	
CC[C@H](C)[C@H](NC(=O)[C@H](Cc1ccccc1)NC(=O)[C@H](CCCCNC(=O)COCCOCCNC(=O)COCCOCCNC(=O)CC[C@H](NC(=O)CCCCCCCCCOc1ccc(C(=O)O)cc1)C(=O)O)NC(=O)[C@H](CCCNC(=N)N)NC(=O)[C@H](C)NC(=O)[C@H](C)NC(=O)[C@H](CCC(N)=O)NC(=O)[C@H](CCC(=O)O)NC(=O)[C@H](CCC(=O)O)NC(=O)[C@H](CCCCNC(=O)COCCOCCNC(=O)COCCOCCNC(=O)CC[C@H](NC(=O)CCCCCCCCCOc1ccc(C(=O)O)cc1)C(=O)O)NC(=O)[C@H](Cc1ccc(O)cc1)NC(=O)[C@H](CO)NC(=O)[C@H](CO)NC(=O)[C@@H](NC(=O)[C@H](CC(=O)O)NC(=O)[C@H](CO)NC(=O)[C@@H](NC(=O)[C@H](Cc1ccccc1)NC(=O)[C@@H](NC(=O)CNC(=O)[C@H](CCC(=O)O)NC(=O)C(C)(C)NC(=O)[C@@H](N)Cc1c[nH]cn1)[C@@H](C)O)[C@@H](C)O)C(C)C)C(=O)N[C@@H](CCC(=O)O)C(=O)N[C@@H](Cc1c[nH]c2ccccc12)C(=O)N[C@@H](CC(C)C)C(=O)N[C@H](C(=O)NCC(=O)O)C(C)C [Example 5, N^ε20-[2-[2-[2-[[2-[2-[2-[[(4S)-4-carboxy-4-[10-(4-carboxyphenoxy)decanoylamino]butanoyl]amino]ethoxy]ethoxy]acetyl]amino]ethoxy]ethoxy]acetyl], N^ε27-[2-[2-[2-[[2-[2-[2-[[(4S)-4-carboxy-4-[10-(4-carboxyphenoxy)decanoylamino]butanoyl]amino]ethoxy]ethoxy]acetyl]amino]ethoxy]ethoxy]acetyl]-[Aib^8,Lys^20,Glu^22,Arg^26,Lys^27,Glu^30,Gly^34]-GLP-1-(7-34)-peptide] (H-H[Aib]EGTFTSDVSSYK([AEEA-AEEA-γGlu-Decanoyl(10-(4-HOOC-PhO))])EEQAARK([AEEA-AEEA-γGlu-Decanoyl(10-(4-HOOC-PhO))])FIEWLVG-OH)		124	79
CC[C@H](C)[C@H](NC(=O)[C@H](Cc1ccccc1)NC(=O)[C@H](CCCCNC(=O)COCCOCCNC(=O)COCCOCCNC(=O)CC[C@H](NC(=O)CCCCCCCCCCCCC(=O)O)C(=O)O)NC(=O)[C@H](CCCNC(=N)N)NC(=O)[C@@H](NC(=O)[C@H](C)NC(=O)[C@H](CCC(N)=O)NC(=O)[C@H](CCCCNC(=O)COCCOCCNC(=O)COCCOCCNC(=O)CC[C@H](NC(=O)CCCCCCCCCCCCC(=O)O)C(=O)O)NC(=O)[C@H](CCC(=O)O)NC(=O)[C@H](CC(C)C)NC(=O)[C@H](Cc1ccc(O)cc1)NC(=O)[C@H](CO)NC(=O)[C@H](CO)NC(=O)[C@@H](NC(=O)[C@H](CC(=O)O)NC(=O)[C@H](CO)NC(=O)[C@@H](NC(=O)[C@H](Cc1ccccc1)NC(=O)[C@@H](NC(=O)CNC(=O)[C@H](CCC(=O)O)NC(=O)C(C)(C)NC(=O)[C@@H](N)Cc1c[nH]cn1)[C@@H](C)O)[C@@H](C)O)C(C)C)C(C)C)C(=O)N[C@@H](C)C(=O)N[C@@H](Cc1c[nH]cn1)C(=O)N[C@@H](CC(C)C)C(=O)N[C@H](C(=O)N[C@@H](CCCNC(=N)N)C(=O)NCC(=O)N[C@@H](CCCNC(=N)N)C(=O)NCC(=O)O)C(C)C [Example 7, N^ε22-[2-[2-[2-[[2-[2-[2-[[(4S)-4-carboxy-4-(13-carboxytridecanoylamino)butanoyl]amino]ethoxy]ethoxy]acetyl]amino]ethoxy]ethoxy]acetyl],N^ε27-[2-[2-[2-[[2-[2-[2-[[(4S)-4-carboxy-4-(13-carboxytridecanoylamino)butanoyl]amino]ethoxy]ethoxy]acetyl]amino]ethoxy]ethoxy]acetyl]-[Aib^8,Lys^22,Val^25,Arg^26,Lys^27,His^31,Arg^34]-GLP-1-(7-37)-peptide] (H-H[Aib]EGTFTSDVSSYLEK([AEEA-AEEA-γGlu-C14 diacid])QAVRK([AEEA-AEEA-γGlu-C14 diacid])FIAHLVRGRG-OH)		99	174
